22 molecules from US20230091047A1 (priority 2019, published 2023) can be followed below.

Structures are written as SMILES. Read-outs that look alike come from different tables or passages of the source.

Series [1] relates to HBV (HepG2.117 cell line, inducibly HBV producing). The experiment in a line: Anti-HBV activity: intracellular HBV DNA by real-time PCR in HepG2.117 cells after 3 days of treatment. In kind it is cell-based, hepatitis B virus. In outline: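 Read-out is intracellular HBV DNA, measured by real-time PCR using HBV-specific primers and probe. Cells were stable, inducible HBV-producing HepG2.117 (Tet-off). Serially diluted compound was applied for 3 days after replication was induced.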
In general terms: Real-time PCR tracks product formation cycle by cycle.

A further series is described as follows: in vitro. In kind it is cell-based. As to conditions: human, HepG2 or HepG2.117 cells, ATPlite, mean value. In short, it runs like this: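 Luminescent ATP quantitation served as the viability endpoint following a 3- or 4-day incubation with test compounds.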
In general terms: Cellular ATP, detected with luciferase, serves as a proxy for viable cell number.

Setting [2] is: Hepatitis B virus, HepG2.117, 72 h, HepG2.117 cells, intracellular HBV DNA by real-time PCR, 3 days of treatment, mean value; read-out: EC50 (μM, mean value).
Setting [3] is: 3-days incubation (not marked with *).
Setting [4] is: Hepatitis B virus, HepG2.117, 72 h, HepG2.117 cells, 3 days of treatment, intracellular HBV DNA by real-time PCR; mean value; read-out: EC50 (μM, mean value).
The mark [5] stands for this setting: 3-days incubation (unmarked values).

Usually EC50 stands for the midpoint of the concentration-response curve. What is called CC50 is the concentration that lowers cell viability or growth by half. Read a high CC50 as better tolerance by the cells.

On to `CNC(=O)c1ccc(-n2c(NC(C)C)nc3c(c2=O)C[C@@H](C)N(C(=O)c2ccc(Cl)cc2OC)C3)cc1` [Compound C593], for which the EC50 in series [1] (setting [2]) was over 25 µM. Also, the CC50 at 3 days in the series “in vitro” (setting [3]) was over 50 µM.

`CNC(=O)c1ccc(-n2c(NC)nc3c(c2=O)C[C@@H](C)N(C(=O)c2ccc(Cl)c(Cl)c2)C3)nc1` [Compound C331, 6-[(6R)-7-(3,4-dichlorobenzoyl)-6-methyl-2-(methylamino)-4-oxo-5,6,7,8-tetrahydropyrido[3,4-d]pyrimidin-3(4H)-yl]-N-methylpyridine-3-carboxamide]: the EC50 in series [1] (setting [4]) was determined as 0.95 µM. This molecule displayed a cytotoxic concentration (CC50) at 3 days in “in vitro” (setting [5]) of over 50 µM.

Consider `CC(C)NC(=O)c1ccc(-n2c(NC(C)C)nc3c(c2=O)C[C@@H](C)N(C(=O)c2ccc(Cl)c(Cl)c2)C3)cn1` [Compound C227, 5-[(6R)-7-(3,4-dichlorobenzoyl)-6-methyl-4-oxo-2-[(propan-2-yl)amino]-5,6,7,8-tetrahydropyrido[3,4-d]pyrimidin-3(4H)-yl]-N-(propan-2-yl)pyridine-2-carboxamide], for which the EC50 in series [1] (setting [4]) was 0.18 µM. The CC50 at 3 days in “in vitro” (setting [5]) is over 50 µM.

For the molecule `CNC(=O)c1ncc(-n2c(O)nc3c(c2=O)C[C@@H](C)N(C(=O)c2ccc(Cl)c(Cl)c2)C3)n1C` [Compound C626, R-5-(7-(3,4-dichlorobenzoyl)-2-hydroxy-6-methyl-4-oxo-5,6,7,8-tetrahydropyrido[3,4-d]pyrimidin-3(4H)-yl)-N,1-dimethyl-1H-imidazole-2-carboxamide], the EC50 in series [1] (setting [2]) was over 2.5 µM. This molecule showed a CC50 at 3 days in “in vitro” (setting [3]) of over 50 µM.

Take `CC(C)Nc1nc2c(c(=O)n1-c1ccc(C(=O)NCC(C)(C)C(=O)O)cc1)C[C@@H](C)N(C(=O)c1ccc(Cl)c(Cl)c1)C2` [Compound C214, 3-{4-[(6R)-7-(3,4-dichlorobenzoyl)-6-methyl-4-oxo-2-[(propan-2-yl)amino]-5,6,7,8-tetrahydropyrido[3,4-d]pyrimidin-3(4H)-yl]benzamido}-2,2-dimethylpropanoic acid]: the concentration giving a half-maximal response (EC50) in series [1] (setting [4]) was found to be 14.6 µM. Moreover, the half-maximal cytotoxic concentration (CC50) at 3 days in the series “in vitro” (setting [5]) was over 50 µM.

As for `CNC(=O)c1ccc(-n2c(N[C@H](C)c3ccncc3)nc3c(c2=O)C[C@@H](C)N(C(=O)c2ccc(Cl)c(Cl)c2)C3)cc1` (single isomer, unassigned) [Compound C375a], in series [1] (setting [4]), the EC50 amounted to 3.19 µM. In “in vitro” (setting [5]), the CC50 at 3 days was over 50 µM.

On to `CC(C)Nc1nc2c(c(=O)n1-c1ccc(C(=O)NCCN)cc1)C[C@@H](C)N(C(=O)c1ccc(Cl)c(Cl)c1)C2` [Compound C197, N-(2-aminoethyl)-4-[(6R)-7-(3,4-dichlorobenzoyl)-6-methyl-4-oxo-2-[(propan-2-yl)amino]-5,6,7,8-tetrahydropyrido[3,4-d]pyrimidin-3(4H)-yl]benzamide], for which the EC50 in series [1] (setting [4]) was 1.81 µM. For the same molecule, the CC50 at 3 days in the series “in vitro” (setting [5]) was over 50 µM.

Regarding `CC(C)Nc1nc2c(c(=O)n1-c1ccc(-c3nccn3C)cc1Cl)C[C@@H](C)N(C(=O)c1ccc(Cl)c(Cl)c1)C2` [Compound C313, (6R)-3-[2-chloro-4-(1-methyl-1H-imidazol-2-yl)phenyl]-7-(3,4-dichlorobenzoyl)-6-methyl-2-[(propan-2-yl)amino]-5,6,7,8-tetrahydropyrido[3,4-d]pyrimidin-4(3H)-one], the EC50 in series [1] (setting [4]) was found to be 0.12 µM. The same molecule yielded a CC50 at 3 days in “in vitro” (setting [5]) of 24.4 µM.

Consider `CNC(=O)c1n[nH]c(-n2c(NC(C)C)nc3c(c2=O)C[C@@H](C)N(C(=O)c2ccc(Cl)c(Cl)c2)C3)c1C` [Compound C693], for which, in series [1] (setting [2]), the EC50 came out at 0.11 µM. The CC50 at 3 days in the series “in vitro” (setting [3]) was over 50 µM.

Take `CC(C)Nc1nc2c(c(=O)n1-c1ccc(-c3nccs3)cc1)CCN(C(=O)c1ccc(Cl)c(Cl)c1)C2` [Compound C238, 7-(3,4-dichlorobenzoyl)-2-[(propan-2-yl)amino]-3-[4-(1,3-thiazol-2-yl)phenyl]-5,6,7,8-tetrahydropyrido[3,4-d]pyrimidin-4(3H)-one]: the EC50 in series [1] (setting [4]) stood at 0.56 µM. In the series “in vitro” (setting [5]), this molecule displayed a CC50 at 3 days of over 50 µM.

Regarding `COc1ccccc1-n1c(N)nc2c(c1=O)CCN(C(=O)c1ccc(Cl)c(Cl)c1)C2` [Compound C57, 2-amino-7-(3,4-dichlorobenzoyl)-3-(2-methoxyphenyl)-5,6,7,8-tetrahydropyrido[3,4-d]pyrimidin-4(3H)-one], the 50% effective concentration (EC50) in series [1] (setting [4]) came to 0.91 µM. The CC50 at 3 days in the series “in vitro” (setting [5]) is over 50 µM.

`CC[C@H](C)Oc1nc2c(c(=O)n1-c1ccc(C(=O)NC)cc1)C[C@@H](C)N(C(=O)c1ccc(Cl)c(Cl)c1)C2` [Compound C398]: the EC50 in series [1] (setting [2]) was 0.1 µM. Moreover, half-maximal cytotoxicity in “in vitro” (setting [3]) (CC50 at 3 days) was put at 25.3 µM.

Regarding `CC(C)Nc1nc2c(c(=O)n1-c1ccc(-n3cccn3)cc1Cl)C[C@@H](C)N(C(=O)c1ccc(Cl)c(Cl)c1)C2` [Compound C404], the 50% effective concentration (EC50) in series [1] (setting [2]) was 0.13 µM. The same molecule displayed a CC50 at 3 days in the series “in vitro” (setting [3]) of over 50 µM.

Turning to `CNC(=O)c1ccc(-n2c(NC(C)c3cn(C)nn3)nc3c(c2=O)C[C@@H](C)N(C(=O)c2ccc(Cl)c(Cl)c2)C3)cc1` (some centres unmarked) [Compound C489], the concentration giving a half-maximal response (EC50) in series [1] (setting [2]) is over 25 µM. Besides, in “in vitro” (setting [3]), the CC50 at 3 days was over 50 µM.

Consider `CNC(=O)c1ccc(-n2c(N[C@H](C)c3ccc(F)cc3F)nc3c(c2=O)C[C@@H](C)N(C(=O)c2ccc(Cl)c(Cl)c2)C3)cc1` (single isomer, unassigned) [Compound C689a], for which, in series [1] (setting [2]), the EC50 is 0.2 µM. In addition, the CC50 at 3 days in the series “in vitro” (setting [3]) was 16.7 µM.

As for `COc1ccc(CNc2nc3c(c(=O)n2C(C)C)CCN(C(=O)c2ccc(Cl)c(Cl)c2)C3)cc1` [Compound C72, 7-(3,4-dichlorobenzoyl)-2-{[(4-methoxyphenyl)methyl]amino}-3-(propan-2-yl)-5,6,7,8-tetrahydropyrido[3,4-d]pyrimidin-4(3H)-one], the EC50 in series [1] (setting [4]) is 2.77 µM. For the same molecule, half-maximal cytotoxicity in the series “in vitro” (setting [5]) (CC50 at 3 days) was put at 40 µM.

For the molecule `CNC(=O)c1ccc(-n2c(NC(C)C)nc3c(c2=O)C[C@@H](C)N(C(=O)c2ccc(Br)cc2F)C3)cc1` [Compound C511], the concentration for a half-maximal effect (EC50) in series [1] (setting [2]) was determined as 2.41 µM. Also, in “in vitro” (setting [3]), the CC50 at 3 days is over 50 µM.

As to `CNC(=O)c1ccc(-n2c(N[C@@H](C)C(C)C)nc3c(c2=O)C[C@@H](C)N(C(=O)c2ccc(Cl)c(Cl)c2)C3)cc1` [Compound C390], in series [1] (setting [2]), the EC50 came out at 0.08 µM. In the series “in vitro” (setting [3]), this molecule displayed a CC50 at 3 days of 26.5 µM.

As to `CNC(=O)c1ccc(-n2c(N3CCC[C@H]3c3ccccc3)nc3c(c2=O)C[C@@H](C)N(C(=O)c2ccc(Cl)c(Cl)c2)C3)cc1` (single isomer, unassigned) [Compound C401b], the EC50 in series [1] (setting [2]) was found to be 0.83 µM. In the series “in vitro” (setting [3]), this molecule returned a 50% cytotoxic concentration (CC50) at 3 days of 18.2 µM.

For the molecule `COc1ccc(CNc2nc3c(c(=O)n2CCNS(C)(=O)=O)CCN(C(=O)c2ccc(Cl)c(Cl)c2)C3)cc1` [Compound C111, N-{2-[7-(3,4-dichlorobenzoyl)-2-{[(4-methoxyphenyl)methyl]amino}-4-oxo-5,6,7,8-tetrahydropyrido[3,4-d]pyrimidin-3(4H)-yl]ethyl}methanesulfonamide], in series [1] (setting [4]), the concentration giving a half-maximal response (EC50) stood at 7.64 µM. Besides, the cytotoxic concentration (CC50) at 3 days in the series “in vitro” (setting [5]) was over 50 µM.

Regarding `CNc1noc2ccc(-n3c(NC(C)C)nc4c(c3=O)C[C@@H](C)N(C(=O)c3ccc(Cl)c(Cl)c3)C4)cc12` [Compound C263, (6R)-7-(3,4-dichlorobenzoyl)-6-methyl-3-[3-(methylamino)-1,2-benzoxazol-5-yl]-2-[(propan-2-yl)amino]-5,6,7,8-tetrahydropyrido[3,4-d]pyrimidin-4(3H)-one], in series [1] (setting [4]), the EC50 was 0.17 µM. Also, the CC50 at 3 days in “in vitro” (setting [5]) is over 50 µM.

For `CNC(=O)c1ccc(-n2c(NC(C)C)nc3c(c2=O)C[C@@H](C)N(C(=O)c2ccc4c(c2)[nH]c(=O)n4C)C3)cc1` [Compound C510], the EC50 in series [1] (setting [2]) turned out to be 9.42 µM. This molecule also had a CC50 at 3 days in the series “in vitro” (setting [3]) of over 50 µM.
